How the values were obtained:
Pellicularia sasakii [1] = experiment: Abnormal branching of hyphal tips of Pellicularia sasakii (agar dilution bioassay); assay type: cell-based
Procedure: Therefore, the bioassay of the antibiotics should be conducted in the following manner.
Pellicularia sasakii is used as the test organism employing plain agar as the assay medium. The test organism is cultivated on a potato (sucrose) agar slant for 2 to 5 days, and the resulting culture is used to inoculate at the center of a 9-cm Petri dish plate of modified Pfeffer's medium, which is then incubated at 27° C for 2 days. By the end of this period, the mycelium will have spread over the entire surface of the plate. The growth on the circumference about 3 to 3.5 cm in radius from the center is cut out with a cork borer and the agar disc thus obtained is used as the inoculum.
A serial dilution series of agar plants containing varying concentrations of the antibiotics is prepared in the same manner as a conventional agar dilution method.
A glass disc of 8 mm in diameter and about 0.2 mm thick, is placed in the center of each of the aforementioned dilution series of agar plates, and the agar disc inoculum is then placed on the glass disc. After incubation at 27° C for 40 hours, the result is evaluated. […] The term dilution unit means the value of maximum dilution which produces such abnormal branching.
Modified Pfeffer's medium, which is employed in this assay, has the following composition.
Before using the medium, the following vitamins are added in the specified amounts. (Weight per ml. of medium)
When a 1 mg./ml. aqueous solution of each of validamycins C, D, E and F and validoxylamines A and B is used as a stock solution, the highest dilution factor that causes an abnormal branching at the hyphal tips of Pellicularia sasakii is as follows.

bacteria and fungi = experiment: Antimicrobial potency / growth inhibition in vitro; assay type: cell-based
[2] = pKa' (neutralization, in aqueous solution); assay type: physicochemical; conditions: water
Text: 3. The elementary analysis, the molecular formulas as calculated therefrom, pKa' values, neutralization equivalents (molecular weight) and optical rotation values are given in Table 2.

Solubilities = assay type: physicochemical
[3] = Acute toxicity in mice, intravenous injection; assay type: in vivo; conditions: mouse, in vivo
Procedure: (§1) The toxicity of the antibiotics can be confirmed, for instance, by administering each of the validamycins C, D, E and F, and validoxylamines A and B, intravenously to mice and measuring the LD50 value, or by measuring the median lethal dose (48 hours) for Oryzias latipes.

[4] = Acute toxicity for Oryzias latipes (median lethal dose, 48 hours); assay type: in vivo; conditions: medaka, leaving in water solution, read-out: TLm
Procedure: as §1

Pellicularia sasakii [5] = experiment: Rice sheath blight control test, preventive (prophylactic); assay type: in vivo; conditions: 10 days after application, untreated 34.4cm
Procedure: (§2) Rice sheath blight control test
(§3) Rice Plants (variety: Kinmaze) are planted in earthen pots 9 cm in diameter, 3 stocks per pot. Seedlings 80 days after potting are tested and 6 pots each of them are grouped.
(§4) Pathogenic fungi Pellicularia sasakii is cultivated on a plate of potato infusion-sugar-agar at 30°C for 48 hours, and its agar disc 10mm in diameter is cut out from a peripheral colony. The disc is inserted into the inside space of the leaf sheath near the soil surface, a disc per stem. The pots are kept in a PVC shelter at the temperature of 32°-25° C and the relative humidity of 100-70%. Inoculation is carried out immediately after the applied drug has been air-dried in the prophylactic test, and 3 days before application in the remedial test.
(§5) 10 days after application of the drug, the length of each stem from ground level to the upper edge of the lesion is directly measured.

Pellicularia sasakii [6] = experiment: Rice sheath blight control test, remedial; assay type: in vivo; conditions: inoculation 3 days before application, untreated 34.4cm
Procedure: as §2, §3, §4, §5

Rhyzoctonia solani = experiment: Cucumber damping-off control test; assay type: in vivo; conditions: 14 days after sowing
Procedure: Cucumber damping-off control test
Rhyzoctonia solani is cultured on barley medium at 28° C for 5 days. A field soil sample is packed into clay pots 9 cm in diameter, which are then sterilized with steam. The chaff inoculum is evenly worked into the cover soil of each pot to the depth of about 3 cm, at the rate of 2g./pot. The pots are kept in an incubation chamber at 28° C for 4 days and, then, transferred to a greenhouse.
As per Experiment 1, the drug is sprayed onto the soil surface at the rate of 30 ml./6 pots/group.
Healthy seeds of cucumber (variety: Yonyo) are sown by burial in the pots immediately after treatment, at the rate of 10 seeds/pot. The pots are then placed in a greenhouse at 32°-28° C.
14 days after sowing, the results are evaluated against the following coefficients of lesion and the degrees of damage are calculated.
Coefficients of lesion (I)
0.5 : Root hairs alone are slightly affected.
1 : Aerial portions near soil surface and roots affected.
2 : Early stage of damping-off.
3 : Affected at germination; growth inhibited.
Degree of damage (%) =(Σ(nI))/3 × N × 100 wherein n means the number of samples corresponding to each coefficient of lesion and N means the total number of plants.

Cladosporium fulvum = experiment: Tomato leaf mold control test; assay type: in vivo; conditions: 50 ppm; 14 days after inoculation; inoculated 3 days before application
Procedure: Tomato leaf mold control test
Tomato plants (variety: ponterosa) are planted in 12 cm in diameter pots, one plant per pot. The seedlings 50 days after potting are used, 6 pots/group.
Applied at the rate of 100 ml./6 pots/group as per Experiment 1.
Pathogenic fungi Cladosporium fulvum is cultured on a potato infusion-sucrose plate at 20° C for 14 days, and a suspension of conidia (5×10^5 /ml.) is prepared from the culture.
The plants are spray-inoculated with the suspension 3 days before application of the drug, at the rate of 5 ml. per pot. The pots are kept in an inoculation chamber at 25° C for 24 hours, and, then they are transferred to a greenhouse.
14 days after inoculation, the specific ratio of the average area of lesion in the leaves is measured.

plant diseases = experiment: Control of plant diseases (general statement); assay type: in vivo
[7] = system: men and beasts, as well as to fish; experiment: Harmlessness to men, beasts and fish (general statement); conditions: in vivo
useful plants = experiment: Effect on useful plants (general statement); assay type: in vivo; conditions: even when applied in a high concentration

Question: Which “highest dilution factor that causes an abnormal branching at the hyphal tips of Pellicularia sasakii” value (Pellicularia sasakii [1]; 1 mg./ml. aqueous solution as stock solution) does the source give for `OCC1=C[C@H](NC2C(O)C(O)C(O)C(CO)C2O)[C@H](O)[C@@H](O)[C@@H]1O` (stereo partly shown) [Validoxylamine B] here?
Answer: 10

Question: And the “dilution unit (maximum dilution which produces abnormal branching)” value (Pellicularia sasakii [1]; aqueous solution containing 1000 γ/ml., 27° C for 40 hours)?
Answer: 10 dilution unit/ml.

Question: What about the “antimicrobial potency / growth inhibition of bacteria and fungi in vitro” value (bacteria and fungi) of the same compound?
Answer: no antimicrobial potency

Question: And the pKa [2]?
Answer: 5 ± 0.2

Question: And the solubility in methanol (Solubilities; methanol)?
Answer: more sparingly soluble

Question: And the solubility in pyridine (Solubilities; pyridine)?
Answer: more sparingly soluble

Question: What about the LD50 [3] of the same compound?
Answer: > 2000 mg/kg

Question: And the LC50 at 48 h [4]?
Answer: > 1000 µg/mL

Question: And the “Preventive effect (percent of the average length of lesion/stem per control untreated)” value (Pellicularia sasakii [5]; 3 ppm)?
Answer: 49%

Question: What about the “Preventive effect (percent of the average length of lesion/stem per control untreated)” value (Pellicularia sasakii [5]; 10 ppm) of the same compound?
Answer: 47%

Question: What about the “Preventive effect (percent of the average length of lesion/stem per control untreated)” value (Pellicularia sasakii [5]; 30 ppm) of the same compound?
Answer: 32%

Question: What about the “Preventive effect (percent of the average length of lesion/stem per control untreated)” value (Pellicularia sasakii [5]; 100 ppm) of the same compound?
Answer: 16%

Question: What about the “Preventive effect (percent of the average length of lesion/stem per control untreated)” value (Pellicularia sasakii [5]; 300 ppm) of the same compound?
Answer: 8%

Question: And the “Remedial effect (percent of the average length of lesion/stem per control untreated)” value (Pellicularia sasakii [6]; 10 ppm)?
Answer: 93%

Question: And the “Remedial effect (percent of the average length of lesion/stem per control untreated)” value (Pellicularia sasakii [6]; 30 ppm)?
Answer: 75%

Question: What about the “Remedial effect (percent of the average length of lesion/stem per control untreated)” value (Pellicularia sasakii [6]; 100 ppm) of the same compound?
Answer: 51%

Question: And the “Remedial effect (percent of the average length of lesion/stem per control untreated)” value (Pellicularia sasakii [6]; 300 ppm)?
Answer: 10%

Question: And the Degree of damage (Rhyzoctonia solani; 5 ppm)?
Answer: 100%

Question: And the Degree of damage (Rhyzoctonia solani; 20 ppm)?
Answer: 100%

Question: What about the Degree of damage (Rhyzoctonia solani; 80 ppm) of the same compound?
Answer: 75%

Question: And the “Specific area of lesion” value (Cladosporium fulvum)?
Answer: 36%

Question: And the “controlling effect against plant diseases, for example, the sheath blight of the rice plant” value (plant diseases; application in vivo)?
Answer: excellent controlling effect

Question: And the “effectiveness against sheath blight and stem rot of rice plant, damping off and sclerotial blight of vegetables, flowering plants and lumber seedlings” value (plant diseases; in vivo)?
Answer: very effective

Question: What about the “harmfulness to men and beasts, as well as to fish” value [7] of the same compound?
Answer: substantially harmless

Question: What about the “effect on germination, growth, yield and other features of useful plants” value (useful plants) of the same compound?
Answer: do not substantially affect
